Measurements reported in patent publication US20230381205A1, “COMPOSITIONS AND METHODS FOR TREATING NEURONAL DISORDERS WITH CANNABINOIDS” (INMED PHARMACEUTICALS INC., priority 2020, published 2023).

Legend:
[1] = tested on: differentiated SH-SY5Y human neuronal cells; assay: MTT assay: neuroprotection from Staurosporin (STSR) induced cytotoxicity; format: cell-based
Procedure: Cell Culture and Differentiation: The SH-SY5Y human neuronal cell line was derived from neuroblastoma established from a metastatic bone tumor (patient with neuroblastoma). The cells were maintained in DMEM:F12 culture medium supplemented with 10% FBS and 1% Antibiotic-Antimycotic penicillin/streptomycin (growth medium) at 37° C. in a humidified atmosphere of 5% CO2. To induce neuronal differentiation of SH-SY5Y cells, culture media was replaced by a growth medium containing Retinoic Acid (RA) for 4-5 days at 37° C. in a humidified atmosphere of 5% CO2.
Compounds and Dosing Formulations: Selected cannabinoids: CBD, CBDA, CBC, CBG, CBGA, CBN, CBND and Δ^9-THC were procured from Cayman Chemicals and TRC. Ethanol (100%) was used as the solvent to prepare 1 and 10 mM stock solutions. Treatment concentrations for CBGA were prepared at 0.5 μM, 1.5 μM, 5 μM, 10 μM, 15 μM, 20 μM. Treatment concentrations for CBD, CBDA, CBC, CBN, CBND and Δ^9-THC were prepared at 0.5, 1.5, 5 and for CBG at 0.5 μM, 1.5 μM, 5 μM, 10 μM, 15 μM. Treatments were prepared directly in the control medium (DMEM:F12+5% FBS+1% Antibiotic-Antimycotic) by using appropriate stock solutions.
Evaluation of Cytotoxicity and Neuroprotection: Evaluation of cannabinoids neuroprotection and cytotoxicity on differentiated SH-SY5Y human neuronal cells was carried out by MTT (3-(4,5-dimethylthiazol-2-yl)-2,5-diphenyltetrazolium bromide) assay. Initially, cannabinoid cytotoxicity and neuroprotection were evaluated in a primary screen assay without the presence of cytotoxicity inducing insult agents. […] The Retinoic Acid (RA) differentiated SH-SY5Y neuronal cells were seeded onto 96-well plates (10,000 cells/well) in DMEM:F12 complete medium. Cells were differentiated for 4-5 days in the presence of RA.
MTT Assay: For the MTT assay, differentiated SH-SY5Y neuronal cells were treated with cannabinoids at various concentrations for 72 hrs in the presence of STSR at 75 nM, 100 nM, 150 nM and 200 nM or for 24 hrs in the presence of […] at 5 μM, respectively and processed to determine cytotoxicity. Briefly, 5 mg/mL of methylthiazolyldiphenyl-tetrazolium bromide (Sigma-Aldrich) stock solution was prepared in PBS. Following treatment of SH-SY5Y neuronal cells with cannabinoids for 72 hrs, the cells were incubated with 20 μL of MTT stock solution in 200 μL DMEM for 2 hrs at 37° C. Following subsequent washes with PBS, 200 μL of isopropanol was added to each well. The resulting change in color from dissolving formazan salt was immediately quantified using a spectrophotometer (BMG Labtech) at a wavelength of 570 nm. […] The results are illustrated in FIGS. 1-7.

BAX = assay: Western blot of BAX (pro-apoptotic marker); format: cell-based, human; conditions: CBGA alone or in the presence of Aβ1-42 (5 μM), FIG. 9
Procedure: For Western blot analysis, control and the treated cells were harvested and lysed in cold lysis buffer (150 mM NaCl, 50 mM Tris-HCl, 1% Triton X-100, 0.1% SDS, 0.5% Sodium deoxycholate, and 1% protease-phosphatase inhibitor mixture). The supernatants were collected and protein concentrations were determined using Bio-Rad protein assay (Bio-Rad Laboratories). Whole cell lysates (10 μg) were subjected to 10% SDS-polyacrylamide electrophoresis and transferred to nitrocellulose membrane. The membranes were blocked with 5% skim milk in TBS-T (Tris-buffered saline with 0.05% Tween-20) for 1 h at RT and blotted overnight in the presence of monoclonal anti-mouse MAP2 (1:1000, Sigma, cat. no. M1406), Tau (1:1000, Invitrogen, cat. no. AHB0042), TUJI (1:5000, BioLegend, cat. no. MMS-435P), BAX (1:1000, Cell signaling, cat. no. 2772) and rabbit polyclonal total and phosphorylated BCL (1:1000, Cell signaling, antibodies #2827 and 2870). The membranes were washed and incubated for 1 h in RT with either horseradish peroxidase (HRP)-conjugated goat anti-mouse (1:2000) or goat anti-rabbit antibodies (1:2000) (Jackson Lab). The membranes were washed and developed using chemiluminescence detection kit (Millipore, Billerica, MA, USA) on Alpha Innotech FluorChem 8800. β-Actin or Vinculin was used as a loading control. […]

CB1R = assay: Changes in CB1 receptor expression and translocation; format: cell-based; conditions: CBGA 5 μM, 10 μM, dose-dependent; FIG. 11
Excerpt: FIG. 11 Changes in receptor expression.

[2] = tested on: differentiated SH-SY5Y cells; assay: Neurite length / neuritogenesis in differentiated SH-SY5Y cells; format: cell-based, human
Procedure: FIG. 12 provides representative photomicrographs illustrating CBGA mediated changes in neurite elongation and branching in differentiated SH-SY5Y cells in a dose dependent manner. […] FIG. 12 also provides a histogram showing gradual changes in neurite length following treatment with CBGA.
FIG. 14 Morphological characterization of CBGA, THC and CBN mediated changes in differentiated SH-SY5Y cells. SH-SY5Y cells were differentiated with RA (10 μM) for 5 days as indicated. (A) Representative confocal photomicrographs showing changes in the cellular distribution of Tuj1 in RA induced differentiated SH-SY5Y cells following treatment with CBGA, THC and CBN. (B) Histogram showing the effect of CBGA, CBN, THC on neurite length.

Tuj1 = assay: Western blot of Tuj1 neuritogenesis marker; format: cell-based, human; conditions: 5 μM and 10 μM, FIG. 13
Procedure: FIG. 13 CBGA upregulates the expression of Tuj1 neuritogenesis marker. Developmental changes in prominent intracellular marker of neurite growth, neuron-specific III β-tubulin (Tuj1) was determined using Western blot analysis. CBGA increased the expression of Tuj1 in differentiated SH-SY5Y cells. FIG. 13 also provides a histogram showing densitometric analysis of relative expression of Tuj1. β-Actin was used as a loading control. P<0.05 for CBGA 10 μM vs Control by One-Way ANOVA.
For Western blot analysis, control and the treated cells were harvested and lysed in cold lysis buffer (150 mM NaCl, 50 mM Tris-HCl, 1% Triton X-100, 0.1% SDS, 0.5% Sodium deoxycholate, and 1% protease-phosphatase inhibitor mixture). The supernatants were collected and protein concentrations were determined using Bio-Rad protein assay (Bio-Rad Laboratories). Whole cell lysates (10 μg) were subjected to 10% SDS-polyacrylamide electrophoresis and transferred to nitrocellulose membrane. […]

[3] = tested on: differentiated SH-SY5Y cells; assay: Confocal immunofluorescence of MAP2 and neurite morphology; format: cell-based, human; conditions: FIG. 16
Procedure: SH-SY5Y cells were differentiated with RA (10 μM) for 5 days as indicated.
Accordingly, the effect of CBGA on the expression of MAP-2 was tested.

CCCCCc1cc(O)c(C/C=C(\C)CCC=C(C)C)c(O)c1C(=O)O [CBGA, 3-[(2E)-3,7-dimethylocta-2,6-dienyl]-2,4-dihydroxy-6-pentylbenzoic acid]
neuroprotection against STSR insult-induced cytotoxicity ([1]; 0.5 μM to 20 μM with STSR 75 nM, FIG. 5): significant dose-dependent neuroprotection
neuroprotection against STSR-induced cytotoxicity ([1]; 0.5 μM, 1.5 μM and 5 μM with STSR 75 nM, 72 hrs, FIG. 3): significant neuroprotection
Cell Death (%) vs STSR at 75 nM, significance ([1]; 5 μM with STSR 75 nM, compared to STSR-alone, One-Way ANOVA, FIG. 3): Statistically significant neuroprotection
protection from STSR induced cytotoxicity ([1]; 5 μM, 10 μM and 15 μM with STSR 75 nM, FIG. 6): protected
Cell Death (%) vs STSR, significance ([1]; 10 μM and 15 μM with STSR 75 nM, FIG. 6): Statistically significant neuroprotection
BAX expression (BAX): attenuates BAX expression to the control levels
CB1R expression and translocation (CB1R): promotes translocation of CB1R to the Golgi apparatus
neurite length ([2]; 24 hours post treatment, FIG. 14 (B)): increased neurite length significantly
neuritogenesis (neurite length) ([2]; dose dependent, FIG. 12): significantly increased the neuritogenesis
TuJ1 expression, Western blot (Tuj1): promotes upregulation of TuJ1 expression
MAP-2 expression, corrected total cell fluorescence ([3]; CBGA 10 μM on otherwise untreated cells): promoted upregulation of MAP-2
neurite morphology ([3]; CBGA alone): elongated neurites and enhanced arborization
MAP2 expression ([3]; CBGA treatment of Aβ1-42 exposed cells): restores MAP2 expression
